Laboratory results from patent US20240368406A1, “STABLE LIQUID PHANTOM FOR NEAR-INFRARED FLUORESCENCE VERIFICATION” (SURGVISION GMBH, priority 2021, published 2024).

Assays:
Format in all cases: physicochemical
[1] = Stability of the phantom solutions at +2-8° C. during long-term storage (residual absorbance); conditions: 3 μM dye in HEPES 10 mM, pH 7.0, +2-8° C. protected from light
Procedure: Stability was measured as reduction in the absorbance at the maximum wavelength of the dye acquired using a UV/VIS spectrophotometer, denoting reduction of the dye monomer content in solution. […] A decrease in absorbance is associated with the reduction of the concentration of the dye in the formulation buffer, indicating low stability and degradation of the main chromophore species. The stability of the formulations under long-term storage conditions was also investigated. In particular, samples of 3 μM IRDye […] and 3 μM IRDye 800BK dissolved in HEPES buffer were stored refrigerated at +2-8° C. protected from light exposure for at least 6 months. For the long-term stability study at 2-8° C., samples of.

[2] = Stability of the phantom solutions at +2-8° C. (residual absorbance, UV/VIS)
Procedure: Several stability studies were performed to evaluate the effect of different buffers, additives such as excipients or preservatives, and storage conditions on the dye formulation. In particular the stability of the formulations after storage at +2-8° C. in a refrigerator was firstly investigated.
(§1) Stability was measured as reduction in the absorbance at the maximum wavelength of the dye acquired using a UV/VIS spectrophotometer, denoting reduction of the dye monomer content in solution. All the results were then reported as residual percentage vs the baseline (T=0), wherein at time=0 the percentage is 100%. A decrease in absorbance is associated with the reduction of the concentration of the dye in the formulation buffer, indicating low stability and degradation of the main chromophore species.
In the Tables below the residual absorbance of different dyes, i.e. […] and S0456, in some representative organic buffering solutions is reported after storage of the formulations at +2-8° C.

[3] = Stability of the phantom solutions at +2-8° C. in the presence of additives (residual absorbance); conditions: +2-8° C.
Procedure: as §1
The effect of the presence of an additive on the stability of the formulations of the invention has been also investigated.
The preparation of the above buffers is described below:
50 mM HEPES (pH 7.4)+0.04% Tween 20: to prepare 100 mL of buffering solution, 1.19 g of HEPES were dissolved in 80 mL of water; 40 μL of Tween 20 were added and the pH was adjusted to 7.4 with 0.1 M HCl. The buffering solution was then brought to 100 mL volume with water and filtered on 0.22 μm membrane in sterile conditions.
50 mM HEPES (PH 7.4)+0.02% Sodium Azide: to prepare 100 mL of buffering solution, 1.19 g of HEPES and 20 mg of Sodium Azide were dissolved in 80 mL of water and the pH was adjusted to 7.4 with 0.1 M HCl. The buffering solution was then brought to 100 mL volume with water and filtered on 0.22 μm membrane in sterile conditions.
10 mM HEPES (PH 7.0)+10% EtOH: to prepare 100 mL of buffering solution, 0.24 g of HEPES were dissolved in 80 mL of water and the pH was adjusted to 7.0 with 0.1 M HCl.
Then, 10 mL of 100% Ethanol were added. The buffering solution was then brought to 100 mL volume with water and filtered on 0.22 μm membrane in sterile conditions.
Analogous solutions were prepared with the same procedure for MOPS, BES and TRICINE buffers.

Residual absorbance percentage ([1]; 1 month): 99.1%
Residual absorbance percentage ([1]; 3 months): 94.1%
Residual absorbance percentage ([1]; 6 months): 93.3%
Residual absorbance percentage ([2]; 3 μM dye in BES buffer 10 mM, pH 7.0, +2-8° C., 1 week): 97.6%
Residual absorbance percentage ([2]; 3 μM dye in BES buffer 10 mM, pH 7.0, +2-8° C., 2 weeks): 94.8%
Residual absorbance percentage ([2]; 3 μM dye in BES buffer 10 mM, pH 7.0, +2-8° C., 4 weeks): 92.0%
Residual absorbance percentage ([2]; 3 μM dye in BES buffer 10 mM, pH 7.4, +2-8° C., 1 week): 97.6%
Residual absorbance percentage ([2]; 3 μM dye in BES buffer 10 mM, pH 7.4, +2-8° C., 2 weeks): 94.4%
Residual absorbance percentage ([2]; 3 μM dye in BES buffer 10 mM, pH 7.4, +2-8° C., 4 weeks): 91.5%
Residual absorbance percentage ([2]; 3 μM dye in BES buffer 10 mM, pH 7.8, +2-8° C., 1 week): 96.4%
Residual absorbance percentage ([2]; 3 μM dye in BES buffer 10 mM, pH 7.8, +2-8° C., 2 weeks): 92.4%
Residual absorbance percentage ([2]; 3 μM dye in BES buffer 10 mM, pH 7.8, +2-8° C., 4 weeks): 88.1%
Residual absorbance percentage ([2]; 3 μM dye in BES buffer 50 mM, pH 7.0, +2-8° C., 1 week): 96.8%
Residual absorbance percentage ([2]; 3 μM dye in BES buffer 50 mM, pH 7.0, +2-8° C., 2 weeks): 93.5%
Residual absorbance percentage ([2]; 3 μM dye in BES buffer 50 mM, pH 7.0, +2-8° C., 4 weeks): 90.0%
Residual absorbance percentage ([2]; 3 μM dye in BES buffer 50 mM, pH 7.4, +2-8° C., 1 week): 97.2%
Residual absorbance percentage ([2]; 3 μM dye in BES buffer 50 mM, pH 7.4, +2-8° C., 2 weeks): 94.0%
Residual absorbance percentage ([2]; 3 μM dye in BES buffer 50 mM, pH 7.4, +2-8° C., 4 weeks): 90.5%
Residual absorbance percentage ([2]; 3 μM dye in BES buffer 50 mM, pH 7.8, +2-8° C., 1 week): 95.9%
Residual absorbance percentage ([2]; 3 μM dye in BES buffer 50 mM, pH 7.8, +2-8° C., 2 weeks): 91.7%
Residual absorbance percentage ([2]; 3 μM dye in BES buffer 50 mM, pH 7.8, +2-8° C., 4 weeks): 89.6%
Residual absorbance percentage ([2]; 3 μM dye in MOPS buffer 10 mM, pH 7.0, +2-8° C., 1 week): 97.9%
Residual absorbance percentage ([2]; 3 μM dye in MOPS buffer 10 mM, pH 7.0, +2-8° C., 2 weeks): 95.7%
Residual absorbance percentage ([2]; 3 μM dye in MOPS buffer 10 mM, pH 7.0, +2-8° C., 4 weeks): 93.7%
Residual absorbance percentage ([2]; 3 μM dye in MOPS buffer 10 mM, pH 7.4, +2-8° C., 1 week): 97.9%
Residual absorbance percentage ([2]; 3 μM dye in MOPS buffer 10 mM, pH 7.4, +2-8° C., 2 weeks): 95.3%
Residual absorbance percentage ([2]; 3 μM dye in MOPS buffer 10 mM, pH 7.4, +2-8° C., 4 weeks): 93.6%
Residual absorbance percentage ([2]; 3 μM dye in MOPS buffer 10 mM, pH 7.8, +2-8° C., 1 week): 96.9%
Residual absorbance percentage ([2]; 3 μM dye in MOPS buffer 10 mM, pH 7.8, +2-8° C., 2 weeks): 94.1%
Residual absorbance percentage ([2]; 3 μM dye in MOPS buffer 10 mM, pH 7.8, +2-8° C., 4 weeks): 91.1%
Residual absorbance percentage ([2]; 3 μM dye in MOPS buffer 50 mM, pH 7.0, +2-8° C., 1 week): 97.4%
Residual absorbance percentage ([2]; 3 μM dye in MOPS buffer 50 mM, pH 7.0, +2-8° C., 2 weeks): 94.6%
Residual absorbance percentage ([2]; 3 μM dye in MOPS buffer 50 mM, pH 7.0, +2-8° C., 4 weeks): 92.0%
Residual absorbance percentage ([2]; 3 μM dye in MOPS buffer 50 mM, pH 7.4, +2-8° C., 1 week): 97.5%
Residual absorbance percentage ([2]; 3 μM dye in MOPS buffer 50 mM, pH 7.4, +2-8° C., 2 weeks): 94.9%
Residual absorbance percentage ([2]; 3 μM dye in MOPS buffer 50 mM, pH 7.4, +2-8° C., 4 weeks): 92.6%
Residual absorbance percentage ([2]; 3 μM dye in MOPS buffer 50 mM, pH 7.8, +2-8° C., 1 week): 97.0%
Residual absorbance percentage ([2]; 3 μM dye in MOPS buffer 50 mM, pH 7.8, +2-8° C., 2 weeks): 94.0%
Residual absorbance percentage ([2]; 3 μM dye in MOPS buffer 50 mM, pH 7.8, +2-8° C., 4 weeks): 91.3%
Residual absorbance percentage ([3]; 3 μM dye in BES (10 mM, pH 7.0) +10% EtOH, 1 week): 99.2%
Residual absorbance percentage ([3]; 3 μM dye in BES (10 mM, pH 7.0) +10% EtOH, 2 weeks): 98.2%
Residual absorbance percentage ([3]; 3 μM dye in BES (10 mM, pH 7.0) +10% EtOH, 4 weeks): 97.2%
Residual absorbance percentage ([3]; 3 μM dye in HEPES (10 mM, pH 7.0) +10% EtOH, 1 week): 97.8%
Residual absorbance percentage ([3]; 3 μM dye in HEPES (10 mM, pH 7.0) +10% EtOH, 2 weeks): 97.2%
Residual absorbance percentage ([3]; 3 μM dye in HEPES (10 mM, pH 7.0) +10% EtOH, 4 weeks): 95.1%
Residual absorbance percentage ([3]; 3 μM dye in MOPS (10 mM, pH 7.0) +10% EtOH, 1 week): 97.6%
Residual absorbance percentage ([3]; 3 μM dye in MOPS (10 mM, pH 7.0) +10% EtOH, 2 weeks): 95.8%
Residual absorbance percentage ([3]; 3 μM dye in MOPS (10 mM, pH 7.0) +10% EtOH, 4 weeks): 92.9%
SMILES: CC1(C)C(/C=C/C2=C(Oc3ccc(S(=O)(=O)O)cc3)C(=C/C=C3\N(CCCCS(=O)(=O)[O-])c4ccc(S(=O)(=O)O)cc4C3(C)C)/CCC2)=[N+](CCCCS(=O)(=O)O)c2ccc(S(=O)(=O)O)cc21 [IRDye 800BK]
